Experimental data from patent publication US12578271B2, “Gram-stain differentiation with nonlinear light scattering” (Temple University—Of The Commonwealth System of Higher …, priority 2020, dated 2026).

Key:
[1] = system: E. coli (mc4100 strain); assay: time-resolved second-harmonic scattering (SHS) of dye uptake by living bacteria, Gram-negative; assay type: cell-based
Experimental: (§1) Discrete colonies of E. coli (mc4100 strain) and L. rhamnosus ([…] strain) were grown on Luria Broth agar (Sigma-Aldrich) plates. Experimental samples, prepared from single colonies, were cultured (37° C., 150 rpm shaking) in Terrific Broth (TB, Sigma-Aldrich) to late-log/early stationary phase. Samples were lightly pelletized by centrifugation (ca. 1500 g for 2 min) and washed in 1×PBS to remove waste and residual TB. […] Final sample concentrations were maintained at 10 μM (MG) and 50 μM (CV). The 800 nm output from a Ti:sapphire laser (Coherent, […], oscillator only, 50 fs pulse duration, 4 nJ pulse energy, 76 MHz repetition rate, 0.4 W average power) was used as a fundamental light source. As depicted in FIG. 2A, SHS was measured while the sample circulated through a liquid flow system. To ensure collection of the SH signal solely from the sample, a long-pass filter (Schott, RG695) was placed in front of the focusing lens immediately before the sample jet. […] The signal was then detected by a photomultiplier (Hamamatsu, […]), amplified (Stanford Research Systems, SR440), and processed through a correlated photon counting system (Stanford Research Systems, SRS SR400). As a means of separating the surface specific SH response from the hyper-Rayleigh scattering (HRS) of the bulk dye solution, SHS was first measured from the dye solution in the absence of cells. […] To ensure rapid mixing of the suspension, in addition to circulating through the system, the contents of the sample reservoir were continuously stirred.

[2] = system: L. rhamnosus (R0011 strain); assay: time-resolved second-harmonic scattering (SHS) of dye uptake by living bacteria, Gram-positive; assay type: cell-based, Lactobacillus (L.) rhamnosus
Experimental: as §1

[3] = system: E. coli (mc4100 strain); details: prior SHS studies, living E. coli; cited from earlier work
[4] = pH=7.2; cited from earlier work
[5] = E. coli added ca. 10 s, 10 μM MG, 50 μM CV, FIG. 2B

Row | SMILES | time of onset of second rise of SHS signal (dye has diffused across PM and adsorbs onto outer surface of CM) [1, 5] | time until which second rise of SHS signal continues to grow, then stable plateau ([1]; E. coli added ca. 10 s, 50 μM CV, FIG. 2B) | late time SHS signal relative to HRS baseline ([1]; Gram-negative cells, 50 μM CV, FIG. 4) | fraction of CV from the bulk extracellular solution drawn into the Gram-positive cells ([2]; 50 μM CV) | reduction of the HRS background ([2]; 50 μM CV, after fast transport event, observation time 2000+ s, FIG. 4) | removal of CV from the bulk solution ([2]; 50 μM CV, inferred from reduction of HRS background) | late time SHS signal relative to HRS baseline ([2]; Gram-positive cells, 50 μM CV, FIG. 4) | second rise of SHS signal (arrival at CM) ([2]; within the 2000+ s observation time, also at higher concentrations) | ability to cross bacterial membranes (OM, CM) [3] | fraction of molecules that are cationic [4] | time of second decay of SHS signal (dye crosses the CM) ([1]; E. coli added ca. 10 s, 10 μM MG, FIG. 2B) | MG uptake kinetics compared with E. coli ([2]; 10 μM MG, FIG. 6) | fraction of molecules in solution that are neutral [4]
1 | CN(C)c1ccc(C(=C2C=CC(=[N+](C)C)C=C2)c2ccc(N(C)C)cc2)cc1 [CV, crystal violet] | roughly 70 s | about 400 s | positive response | ca. 30% | 30% | ca. 15 μM | negative response | no second rise of SHS signal is ever observed | unable to cross the bacterial CM | 100% | – | – | –
2 | CN(C)c1ccc(C(=C2C=CC(=[N+](C)C)C=C2)c2ccccc2)cc1 [MG, malachite green] | around 25 s | – | – | – | – | – | – | – | cross both the OM and CM | – | ~120 s | nearly identical transport curves | more than 50%
